Test results: US20240117385A1, “ENZYMES OF LUCIFERIN BIOSYNTHESIS AND USE THEREOF” (LIGHT BIO, INC., priority 2018, published 2024)

Columns and labels:
[1] = system: Neonothopanus nambi hispidin hydroxylase and luciferase; experiment: Bioluminescence reaction of biosynthetic hispidin; format: biochemical; conditions: hispidin purified from fermenter medium by HPLC
Method: The obtained E. coli strain was used for producing hispidin. At the first step the bacteria were incubated in five 50 ml plastic tubes in LB medium within 10 hours at 200 rpm fluctuation at 37° C. 250 ml of the obtained culture were added to 3.3 litres of fermentation medium into a fermenter Biostat B5 (Braun, Germany) so that initial culture optical density at 600 nm was about 0.35. Fermentation medium comprised 10 g/l of peptone, 5 g/l of caffeic acid, 5 g/l of yeast extract, 10 g/l of NaCl, 25 g/l of glucose, 15 g/l of (NH4)2SO4, 2 g/l of KH2PO4, 2 g/l of MgSO4·7 H2O, 14.7 mg/l of CaCl2), 0.1 mg/l of thiamine, 1.8 mg/l and 0.1% of the solution composed of: EDTA 8 mg/l, CoCl2·6 H2O 2.5 mg/l, MnCl2·4H2O 15 mg/l, CuCl2·2H2O 1.5 mg/l, H3BO3 3 mg/l, Na2MoO4·2H2O 2.5 mg/l, Zn(CH3COO)2·2H2O 13 mg/l, iron (III) citrate 100 mg/l, thiamine hydrochloride 4.5 mg/l. Fermentation was carried out at 37° C., with 3 l/min aeration and 200 rpm mixing. After 25 hours of cultivation arabinose was added to the culture up to final concentration of 0.1 mM. pH was automatically controlled by adding of NH4OH, […] pH to 7.0. […]

Danio rerio larvae = experiment: Bioluminescence of transgenic Danio rerio larvae after hispidin injection; format: in vivo; conditions: hispidin solution intravenously injected
Excerpt: Transgenic fish Danio redo, comprising gene of Neonothopanus nambi hispidin hydroxylase were created according to the technique described in [Hisano et al., Sci Rep., 2015, 5:8841]. The technique includes expression of guide RNA and Cas9 nuclease for making a breakpoint in the region homologous to the guide RNA sequence. For the purpose of development of transgenic animals there were ordered synthetic DNA fragments comprising guide RNA sequences from pX330 plasmid, Addgene #42230 and mRNA of Cas9 nuclease under control of bacteriophage polymerase T7 promoter. The obtained fragments were used for transcription in vitro by means of reagents from MAXIscript T7 kit (Life Technologies, USA), and synthesized RNA was purified by means of DNA isolation kit (Evrogen, Russia).
Coding sequence of Neonothopanus nambi hispidin hydroxylase floxed by 50-nucleotide sequences from krtt1c19e Danio rerio gene, described in [Hisano et al., Sci Rep., 2015, 5:8841], was obtained synthetically and cloned into pEGFP/C1 plasmid base comprising pUC origin and kanamycin resistance cassette.
Hispidin solution was intravenously injected into Danio rerio larvae for recording bioluminescent signal according to the technique described in [Cosentino et al., J Vis Exp. 2010; (42): 2079]. Bioluminescence was recorded by means of IVIS Spectrum In Vivo Imaging System (Perkin Elmer). […]

SMILES: O=c1cc(O)cc(/C=C/c2ccc(O)c(O)c2)o1 [hispidin, (E)-6-(3,4-dihydroxystyryl)-4-hydroxy-2H-pyran-2-one]
- activity in bioluminescence reaction [1]: active in bioluminescence reaction
- bioluminescence intensity exceeding the signal from wild-type fish (Danio rerio larvae): minimum by two orders of magnitude
